US20240293418A1, “COMBINATION THERAPY FOR TREATING CANCER” (Epizyme, Inc., priority 2016, published 2024)
Where two headings read alike, the source gives them in different places.

Assays:
[1] = system: Ikaros, Aiolos, IRF4 expression in RPMI-8226 cells; test: western blot of Ikaros, Aiolos, IRF4 in RPMI-8226 cells; format: cell-based; conditions: 3 days
MOLP-8 [2] = test: 7-day co-treatment combination model (Cell Titer Glo); conditions: second agent + tazemetostat; for combinatorial effect by Loewe volumes: 7-day co-treatment, MOLP-8 t(11;14); for Loewe volume: 7 day co-treatment, MOLP-8
Experimental: (§1) Assay plates were developed for endpoint analysis using Cell Titer Glo to measure ATP content, which was used as an indicator of cell viability. DMSO concentration was kept constant throughout the assay at less than 0.2% v/v.
(§2) All cells were maintained as instructed by the supplier and cultures were maintained at 37° C. in a humidified atmosphere and 5% CO2.
(§3) Loewe volumes greater than 1 denoted synergy and volumes <−1 denoted antagonism.

LP-1 [3] = test: as above; conditions: for combinatorial effect by Loewe volumes: 7-day co-treatment, LP-1 t(4;14)
Experimental: as §1, §2, §3

KMS-28-BM [4] = test: as above; conditions: for IC50: KMS-28BM, 168 h, read-out: 7-day IC50; for combinatorial effect by Loewe volumes / Loewe volume: second agent + tazemetostat; for combinatorial effect by Loewe volumes: 7-day co-treatment, KMS-28-BM t(4;14); for Loewe volume: 7 day co-treatment, KMS-28-BM
Experimental: as §1, §2, §3

MM1.S [5] = test: as above; conditions: Homo sapiens, 168 h, read-out: 7-day IC50
Experimental: as §1
(§4) Cell lines: The cell lines MI1.S and U266B1 were obtained from American Type Culture Collection (ATCC; Rockville, MD). […] All cells were maintained as instructed by the supplier and cultures were maintained at 37° C. in a humidified atmosphere and 5% CO2.
as §3

RPMI-8226 [6] = test: as above
Experimental: as §1, §4, §3

U266 [7] = test: 7 day pretreatment + 4-day co-treatment combination model (Cell Titer Glo); conditions: for IC50: Homo sapiens, U-266, 96 h, read-out: 4-day IC50; for combinatorial effect by Loewe volumes: second agent + tazemetostat, 7 day pretreatment + 4-day co-treatment, U266 t(11;14)
Text: as §1
(§5) Cell lines: The cell lines MI1.S and U266B1 were obtained from American Type Culture Collection (ATCC; Rockville, MD). The cell lines LP-1, L-363 were obtained from Deutsche Sammlung von Mikroorganismen and Zellkulturen (DSMZ; Braunschweig, Germany) and the cell line KMS-28BM was obtained from Japanese Collection of Research Bioresources Cell Bank (JCRB, Osaka Japan). All cells were maintained as instructed by the supplier and cultures were maintained at 37° C. in a humidified atmosphere and 5% CO2.
as §3

MOLP-8 [8] = test: as above; conditions: second agent + tazemetostat, MOLP-8 t(11;14)
Experimental: as §1, §2, §3

LP-1 [9] = test: as above; conditions: for IC50: Homo sapiens, LP-1, 96 h, read-out: 4-day IC50; for combinatorial effect by Loewe volumes: second agent + tazemetostat, 7 day pretreatment + 4-day co-treatment, LP-1 t(4;14)
Text: as §1, §5, §3

KMS-28-BM [10] = test: as above; conditions: for IC50: KMS-28BM, 96 h, read-out: 4-day IC50; for Loewe volume / combinatorial effect by Loewe volumes: second agent + tazemetostat, 7 day pretreatment + 4-day co-treatment; for Loewe volume: KMS-28-BM; for combinatorial effect by Loewe volumes: KMS-28-BM t(4;14)
Experimental: as §1, §2, §3

L-363 [11] = test: as above; conditions: for IC50: Homo sapiens, L-363, 96 h, read-out: 4-day IC50; for combinatorial effect by Loewe volumes: second agent + tazemetostat, 7 day pretreatment + 4-day co-treatment, L-363 t(20;22)
Text: as §1, §5, §3

MM1.S [12] = test: as above; conditions: Homo sapiens, MM1.S, 96 h, read-out: 4-day IC50
Text: as §1, §5, §3

RPMI-8226 [13] = test: apoptosis in RPMI-8226 cells; format: cell-based; conditions: tazemetostat 31, 125, 500 nM + pomalidomide 3, 12.5, 50 nM, 3 days
Jeko-1 [14] = test: mantle cell lymphoma 7 day co-treatment model; format: cell-based
U266 [15] = system: U266
Experimental: as §1, §4, §3

L-363 [16] = system: L-363
Experimental: as §1, §4, §3

Jeko-1 [17] = test: mantle cell lymphoma 7 day pretreatment + 4-day co-treatment model (Cell Titer Glo)
Text: Cells were then co-treated in triplicate with a second compound, 3-fold serially diluted for additional 4 days. After this time, plates were developed for endpoint analysis using Cell Titer Glo to measure ATP content, which is used as an indicator of cell viability.
A Loewe volume greater than 1 denoted synergy. A Loewe volume between −1 and 1 denoted additivity, and a negative Loewe volume of less than −1, denoted antagonism.

[18] = system: multiple myeloma cell lines and primary patient samples; conditions: reported in the literature; cited from earlier work
[19] = second agent + tazemetostat, 7 day co-treatment
[20] = second agent + tazemetostat, 7 day pretreatment + 4-day co-treatment, Jeko-1

Row | SMILES | combinatorial effect by Loewe volumes (MOLP-8 [2]) | Loewe volume (MOLP-8 [2]) | combinatorial effect by Loewe volumes (LP-1 [3]; second agent + tazemetostat) | IC50 (KMS-28-BM [4]) [nM] | combinatorial effect by Loewe volumes (KMS-28-BM [4]) | Loewe volume (KMS-28-BM [4]) | IC50 (MM1.S [5]) [nM] | Loewe volume (RPMI-8226 [6]; [19]) | IC50 (U266 [7]) [nM] | combinatorial effect by Loewe volumes (U266 [7]) | combinatorial effect by Loewe volumes (MOLP-8 [8]) | IC50 (LP-1 [9]) [nM] | combinatorial effect by Loewe volumes (LP-1 [9]) | IC50 (KMS-28-BM [10]) [nM] | Loewe volume (KMS-28-BM [10]) | combinatorial effect by Loewe volumes (KMS-28-BM [10]) | IC50 (L-363 [11]) [nM] | combinatorial effect by Loewe volumes (L-363 [11]) | IC50 (MM1.S [12]) [nM] | other results
1 | CCN(c1cc(-c2ccc(CN3CCOCC3)cc2)cc(C(=O)NCc2c(C)cc(C)[nH]c2=O)c1C)C1CCOCC1 [Tazemetostat, tazemetostat] |  |  |  |  |  |  |  |  |  |  |  |  |  |  |  |  |  |  |  | IRF4 expression, single agent ([1]; single agent 31, 125 or 500 nM): reduces TRF4 expression
2 | Cc1[nH]c2ccccc2c1CCNCc1ccc(/C=C/C(=O)NO)cc1 [Panobinostat, panobinostat] | S (Synergy) | 2.14 | S (Synergy) | 1.26 | S (Synergy) | 5.19 | 1.34 | 2.24 | 5 | S (Synergy) | A (Additive) | 3 | S (Synergy) | 2.5 | 2.03 | S (Synergy) | 3 | S (Synergy) | 5.8 | 
3 | Nc1cccc2c1C(=O)N(C1CCC(=O)NC1=O)C2=O (stereo not drawn) [Pomalidomide, pomalidomide] | S (Synergy) | 5.73 | S (Synergy) | 100 | S (Synergy) | 7.65 | 35.2 | 3.9 | > 10000 | S (Synergy) | S (Synergy) | 106 | S (Synergy) | 2540 | 6.37 | S (Synergy) | 69 | S (Synergy) | 47 | IRF4 expression, combined treatment ([1]; pomalidomide + tazemetostat vs either alone): enhances repression of IRF4; Ikaros and Aiolos levels ([1]; single agent 12.5, 50 or 200 nM): results in Ikaros and Aiolos degradation; apoptosis (RPMI-8226 [13]): enhanced apoptosis; curve shift analysis of combination (RPMI-8226 [6]; pomalidomide + tazemetostat, 7-day combination assay (FIG. 8)): synergy
4 | C[C@@H]1C[C@H]2[C@@H]3CCC4=CC(=O)C=C[C@]4(C)[C@@]3(F)[C@@H](O)C[C@]2(C)[C@@]1(O)C(=O)CO [Dexamethasone, dexamethasone] | S (Synergy) | 3.61 | S (Synergy) | 2.7 | S (Synergy) | 4.34 | 7 | 1.73 | > 10000 | A (Additive) | S (Synergy) | 4 | S (Synergy) | 6 | 2.45 | S (Synergy) | 7 | A (Additive) | 12 | IC50 (Jeko-1 [14]; Homo sapiens, 168 h, second agent alone, 7 day co-treatment model): 780 nM; Best CI (Jeko-1 [14]; [19]): 0.16; Bliss Volume (Jeko-1 [14]; [19]): 2.96; HSA Volume (Jeko-1 [14]; [19]): 5.19; Loewe Volume (Jeko-1 [14]; [19]): 4.32; Synergy Score (Jeko-1 [14]; [19]): 4.36; IC50 (U266 [15]): > 10000 nM; IC50 (L-363 [16]): 3.5 nM; IC50 (LP-1 [3]; Homo sapiens, LP-1, 168 h, read-out: 7-day IC50): 5 nM; Loewe volume (LP-1 [3]; second agent + tazemetostat, 7 day co-treatment, LP-1): 4.79; IC50 (Jeko-1 [17]; Homo sapiens, JeKo-1, 96 h, read-out: Second agent IC50): > 10000 nM; Best CI (Jeko-1 [17]; [20]): 0.22; Bliss Volume (Jeko-1 [17]; [20]): 4.48; HSA Volume (Jeko-1 [17]; [20]): 7.04; Loewe Volume (Jeko-1 [17]; [20]): 6.91; Synergy Score (Jeko-1 [17]; [20]): 6.33
5 | CC(C)C[C@H](NC(=O)[C@H](Cc1ccccc1)NC(=O)c1cnccn1)B(O)O [Bortezomib, bortezomib] |  |  |  | 5.22 |  |  | 1.92 |  | 2 |  |  | 3 |  | 3 |  |  | 5 |  | 1.4 | vbliss (RPMI-8226 [6]; second agent + tazemetostat, 7 day co-treatment, printed in Loewe volume column): vbliss: 0.24
6 | CCCc1cc(C)[nH]c(=O)c1CNC(=O)c1cc(-c2ccnc(N3CCN(C)CC3)c2)cc2c1cnn2C(C)C [GSK343] |  |  |  |  |  |  |  |  |  |  |  |  |  |  |  |  |  |  |  | growth of multiple myeloma cell lines and primary patient samples [18]: inhibited
